Test: Solid-state stability of the amorphous form
Assay type: physicochemical

stability of the amorphous form: unstable | time until the amorphous material changed into molten state: ≤ 30 min
SMILES: CC(C)c1nc(CN(C)C(=O)N[C@H](C(=O)N[C@@H](Cc2ccccc2)C[C@H](O)[C@H](Cc2ccccc2)NC(=O)OCc2cncs2)C(C)C)cs1 [(5S,8S,10S,11S)-10-Hydroxy-2-methyl-5-(1-methylethyl)-1-[2-(1-methylethyl)-4-thiazolyl]-3,6-dioxo-8,11-bis(phenylmethyl)-2,4,7,12-tetraazatridecan-13-oic acid 5-thiazolylmethyl ester]

Reference: US9096556B2, “Amorphous ritonavir co-precipitated” (HETERO RESEARCH FOUNDATION, priority 2011, dated 2015)
